Test results reported in PMC4912623, “A CD36 ectodomain mediates insect pheromone detection via a putative tunnelling mechanism” (Nature Communications, 2016).

Target: T1, OR67d/ORCO (Drosophila melanogaster, UniProt Q9VT92)
T1 construct: endogenous receptor in OR67d olfactory neurons in vivo (wild type, or snmp1 null rescued with transgenic SNMP1); with Odorant receptor coreceptor; Sensory neuron membrane protein 1
Assay: single sensillum electrophysiology in flies
Format: cell-based
Details: v/v dilutions in paraffin oil, airstream

T1 sequence (Q9VT92 whole entry): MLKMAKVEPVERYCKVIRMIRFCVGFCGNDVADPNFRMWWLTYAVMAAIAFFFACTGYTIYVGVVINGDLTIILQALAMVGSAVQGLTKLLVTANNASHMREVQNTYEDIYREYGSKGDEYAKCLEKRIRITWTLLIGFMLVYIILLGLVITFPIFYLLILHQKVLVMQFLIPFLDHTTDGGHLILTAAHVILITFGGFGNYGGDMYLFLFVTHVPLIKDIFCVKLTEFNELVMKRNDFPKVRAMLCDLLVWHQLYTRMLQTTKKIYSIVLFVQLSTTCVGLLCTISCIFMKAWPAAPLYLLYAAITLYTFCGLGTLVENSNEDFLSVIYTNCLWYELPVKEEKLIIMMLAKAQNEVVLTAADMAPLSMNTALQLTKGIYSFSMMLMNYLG
T1 sequence (Q9VNB5 whole entry partner): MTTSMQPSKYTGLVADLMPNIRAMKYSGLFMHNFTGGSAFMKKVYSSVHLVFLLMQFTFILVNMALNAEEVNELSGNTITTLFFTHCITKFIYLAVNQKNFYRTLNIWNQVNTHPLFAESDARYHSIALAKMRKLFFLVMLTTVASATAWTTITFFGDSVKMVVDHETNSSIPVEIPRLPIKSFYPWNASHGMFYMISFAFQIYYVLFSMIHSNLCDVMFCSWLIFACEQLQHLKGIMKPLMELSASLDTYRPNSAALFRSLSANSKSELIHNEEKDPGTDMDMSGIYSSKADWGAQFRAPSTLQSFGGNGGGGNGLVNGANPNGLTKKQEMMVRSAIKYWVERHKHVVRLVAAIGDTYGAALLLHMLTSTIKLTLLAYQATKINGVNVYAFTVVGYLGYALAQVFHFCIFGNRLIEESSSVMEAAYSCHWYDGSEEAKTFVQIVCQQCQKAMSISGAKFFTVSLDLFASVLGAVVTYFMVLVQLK
T1 sequence (Q9VDD3 whole entry partner): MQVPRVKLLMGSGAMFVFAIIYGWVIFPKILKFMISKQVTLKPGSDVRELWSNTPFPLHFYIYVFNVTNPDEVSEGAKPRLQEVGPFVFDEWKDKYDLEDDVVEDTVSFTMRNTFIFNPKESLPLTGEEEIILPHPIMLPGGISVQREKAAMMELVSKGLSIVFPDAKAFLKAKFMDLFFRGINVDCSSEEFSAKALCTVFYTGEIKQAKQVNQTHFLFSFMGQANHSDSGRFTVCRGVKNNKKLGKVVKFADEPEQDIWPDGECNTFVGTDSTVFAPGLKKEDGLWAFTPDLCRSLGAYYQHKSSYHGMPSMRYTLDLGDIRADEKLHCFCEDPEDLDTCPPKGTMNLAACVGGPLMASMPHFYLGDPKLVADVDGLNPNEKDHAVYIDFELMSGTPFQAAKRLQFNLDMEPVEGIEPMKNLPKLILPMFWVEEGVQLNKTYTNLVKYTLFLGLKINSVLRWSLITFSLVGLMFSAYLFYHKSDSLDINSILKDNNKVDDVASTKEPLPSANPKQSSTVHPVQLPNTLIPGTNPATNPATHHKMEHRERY

Compound: CCCCCC/C=C\CCCCCCCCCCOC(C)=O [cVA, (Z)-11-octadecenyl acetate]
- spikes/s: Concentration–response curves of OR67d neurons to cVA in the indicated rescue genotypes
